± gives the uncertainty stated by the source.
Test: xn = mol fraction of the nth substance listed

In the case of `O=S(=O)([O-])[O-].[Na+].[Na+]` + O, the viscosity (293.15 K, 100 kPa, x1 = 0.003594) is reported as 1.085 ± 0.023 mPa·s, the viscosity (293.15 K, 100 kPa, x1 = 0.004923) is reported as 1.125 ± 0.031 mPa·s and the viscosity (293.15 K, 100 kPa, x1 = 0.01069) is reported as 1.29 ± 0.027 mPa·s. The viscosity (293.15 K, 100 kPa, x1 = 0.01596) was 1.483 ± 0.032 mPa·s, the viscosity (293.15 K, 100 kPa, x1 = 0.02116) was 1.67 ± 0.035 mPa·s and the viscosity (293.15 K, 100 kPa, x1 = 0.02795) was 1.939 ± 0.041 mPa·s. For the same compound, the viscosity (293.15 K, 101.3 kPa, x1 = 0.0009) was 1.025 ± 0.022 mPa·s, the viscosity (293.15 K, 101.3 kPa, x1 = 0.0018) was 1.046 ± 0.022 mPa·s and the viscosity (293.15 K, 101.3 kPa, x1 = 0.00893) was 1.236 ± 0.026 mPa·s. For the same compound, the viscosity (293.15 K, 101.3 kPa, x1 = 0.0125) was 1.349 ± 0.029 mPa·s, the viscosity (293.15 K, 101.3 kPa, x1 = 0.0177) was 1.548 ± 0.033 mPa·s and the viscosity (293.15 K, 101.3 kPa, x1 = 0.02116) was 1.701 ± 0.036 mPa·s. The viscosity (298.15 K, 100 kPa, x1 = 6e-05) was 0.8907 ± 0.0073 mPa·s, the viscosity (298.15 K, 100 kPa, x1 = 0.00013) was 0.8915 ± 0.0073 mPa·s and the viscosity (298.15 K, 100 kPa, x1 = 0.00025) was 0.8935 ± 0.0073 mPa·s. It also gave a viscosity (298.15 K, 100 kPa, x1 = 0.00038) of 0.8955 ± 0.0074 mPa·s, a viscosity (298.15 K, 100 kPa, x1 = 0.003594) of 0.967 ± 0.021 mPa·s and a viscosity (298.15 K, 100 kPa, x1 = 0.01069) of 1.148 ± 0.024 mPa·s. The viscosity (298.15 K, 100 kPa, x1 = 0.01596) was 1.315 ± 0.028 mPa·s, the viscosity (298.15 K, 100 kPa, x1 = 0.02116) was 1.508 ± 0.032 mPa·s and the viscosity (298.15 K, 100 kPa, x1 = 0.02795) was 1.766 ± 0.038 mPa·s. It also gave a viscosity (298.15 K, 101 kPa, x1 = 0.00893) of 1.099 ± 0.064 mPa·s, a viscosity (298.15 K, 101 kPa, x1 = 0.0168) of 1.349 ± 0.082 mPa·s and a viscosity (298.15 K, 101 kPa, x1 = 0.0222) of 1.556 ± 0.098 mPa·s. The viscosity (298.15 K, 101 kPa, x1 = 0.03141) was 2.023 ± 0.14 mPa·s, the viscosity (298.15 K, 101.3 kPa, x1 = 0.0009) was 0.9113 ± 0.019 mPa·s and the viscosity (298.15 K, 101.3 kPa, x1 = 0.0018) was 0.9298 ± 0.02 mPa·s. For the same compound, the viscosity (298.15 K, 101.3 kPa, x1 = 0.00893) was 1.1 ± 0.023 mPa·s, the viscosity (298.15 K, 101.3 kPa, x1 = 0.0125) was 1.201 ± 0.025 mPa·s and the viscosity (298.15 K, 101.3 kPa, x1 = 0.0177) was 1.374 ± 0.029 mPa·s. For the same compound, the viscosity (298.15 K, 101.3 kPa, x1 = 0.02116) was 1.505 ± 0.032 mPa·s, the viscosity (298.15 K, 101.3 kPa, x1 = 0.02631) was 1.72 ± 0.036 mPa·s and the viscosity (298.15 K, 101.33 kPa, x1 = 0.03319) was 1.746 ± 0.046 mPa·s. The viscosity (303.15 K, 100 kPa, x1 = 0.003594) was 0.868 ± 0.018 mPa·s, the viscosity (303.15 K, 100 kPa, x1 = 0.01069) was 1.025 ± 0.022 mPa·s and the viscosity (303.15 K, 100 kPa, x1 = 0.01596) was 1.171 ± 0.025 mPa·s. For the same compound, the viscosity (303.15 K, 100 kPa, x1 = 0.02116) was 1.343 ± 0.029 mPa·s, the viscosity (303.15 K, 100 kPa, x1 = 0.02795) was 1.584 ± 0.034 mPa·s and the viscosity (303.15 K, 101.3 kPa, x1 = 0.0009) was 0.8166 ± 0.017 mPa·s. For the same compound, the viscosity (303.15 K, 101.3 kPa, x1 = 0.0018) was 0.8339 ± 0.018 mPa·s, the viscosity (303.15 K, 101.3 kPa, x1 = 0.00893) was 0.9866 ± 0.021 mPa·s and the viscosity (303.15 K, 101.3 kPa, x1 = 0.0125) was 1.076 ± 0.023 mPa·s. It also gave a viscosity (303.15 K, 101.3 kPa, x1 = 0.0177) of 1.229 ± 0.026 mPa·s, a viscosity (303.15 K, 101.3 kPa, x1 = 0.02116) of 1.345 ± 0.029 mPa·s and a viscosity (303.15 K, 101.3 kPa, x1 = 0.02631) of 1.531 ± 0.032 mPa·s. It also gave a viscosity (308.15 K, 100 kPa, x1 = 6e-05) of 0.7195 ± 0.0061 mPa·s, a viscosity (308.15 K, 100 kPa, x1 = 0.00013) of 0.7205 ± 0.0061 mPa·s and a viscosity (308.15 K, 100 kPa, x1 = 0.00025) of 0.722 ± 0.0061 mPa·s. The viscosity (308.15 K, 100 kPa, x1 = 0.00038) was 0.724 ± 0.0061 mPa·s, the viscosity (308.15 K, 100 kPa, x1 = 0.00128) was 0.7637 ± 0.0063 mPa·s and the viscosity (308.15 K, 100 kPa, x1 = 0.003594) was 0.787 ± 0.017 mPa·s. For the same compound, the viscosity (308.15 K, 100 kPa, x1 = 0.01069) was 0.933 ± 0.02 mPa·s, the viscosity (308.15 K, 100 kPa, x1 = 0.01596) was 1.053 ± 0.022 mPa·s and the viscosity (308.15 K, 100 kPa, x1 = 0.02116) was 1.205 ± 0.026 mPa·s. The viscosity (308.15 K, 100 kPa, x1 = 0.02795) was 1.419 ± 0.03 mPa·s, the viscosity (308.15 K, 101.3 kPa, x1 = 0.0009) was 0.7374 ± 0.016 mPa·s and the viscosity (308.15 K, 101.3 kPa, x1 = 0.0018) was 0.7529 ± 0.016 mPa·s. The viscosity (308.15 K, 101.3 kPa, x1 = 0.00893) was 0.8914 ± 0.019 mPa·s, the viscosity (308.15 K, 101.3 kPa, x1 = 0.0125) was 0.9716 ± 0.021 mPa·s and the viscosity (308.15 K, 101.3 kPa, x1 = 0.0177) was 1.107 ± 0.023 mPa·s. The viscosity (308.15 K, 101.3 kPa, x1 = 0.02116) was 1.21 ± 0.025 mPa·s, the viscosity (308.15 K, 101.3 kPa, x1 = 0.02631) was 1.373 ± 0.029 mPa·s and the viscosity (308.65 K, 100 kPa, x1 = 0.004923) was 0.803 ± 0.022 mPa·s. It also gave a viscosity (318.15 K, 101.3 kPa, x1 = 0.0009) of 0.6114 ± 0.013 mPa·s, a viscosity (318.15 K, 101.3 kPa, x1 = 0.0018) of 0.624 ± 0.013 mPa·s and a viscosity (318.15 K, 101.3 kPa, x1 = 0.00893) of 0.7405 ± 0.016 mPa·s. For the same compound, the viscosity (318.15 K, 101.3 kPa, x1 = 0.0125) was 0.8058 ± 0.017 mPa·s, the viscosity (318.15 K, 101.3 kPa, x1 = 0.0177) was 0.916 ± 0.019 mPa·s and the viscosity (318.15 K, 101.3 kPa, x1 = 0.02116) was 0.9978 ± 0.021 mPa·s. For the same compound, the viscosity (318.15 K, 101.3 kPa, x1 = 0.02631) was 1.127 ± 0.024 mPa·s, the viscosity (323.15 K, 101 kPa, x1 = 0.00893) was 0.676 ± 0.034 mPa·s and the viscosity (323.15 K, 101 kPa, x1 = 0.0168) was 0.819 ± 0.044 mPa·s. The viscosity (323.15 K, 101.33 kPa, x1 = 0.05655) was 1.545 ± 0.041 mPa·s.

From the CheMixHub viscosity set
